Among the data in ChEMBL document CHEMBL4732086, “Targeting nuclear protein TDP-43 by cell division cycle kinase 7 inhibitors: A new therapeutic approach for amyotrophic lateral sclerosis” (Eur J Med Chem, 2021) are inhibition and Activity values, retold here.

In assay [1] the target is RAC-beta serine/threonine-protein kinase (Homo sapiens) (UniProt P31751). Briefly: Inhibition of recombinant full length human His-tagged AKT2 using serine/threonine-06 peptide as substrate at 10 uM incubated for 60 mins in presence of ATP by Z'-LYTE assay.
The target of assay [2] is Serine/threonine-protein kinase PAK 1 (Homo sapiens) (UniProt Q13153). Briefly: Inhibition of recombinant human full length GST-tagged PAK1 expressed in baculovirus expression system using serine/threonine-19 peptide as substrate at 10 uM by Z'-LYTE assay. The conditions noted are these: time 60.0 min.
In assay [3] the target is Mitogen-activated protein kinase 3 (Homo sapiens) (UniProt P27361). Briefly: Inhibition of recombinant human full length GST-tagged MAPK3 expressed in Escherichia coli expression system using serine/threonine-03 peptide as substrate at 10 uM by Z'-LYTE assay. The note with it: time 60.0 min.
In assay [4] the target is CDC7/DBF4 (Cell division cycle 7-related protein kinase/Activator of S phase kinase) (Homo sapiens) (UniProt Q9UBU7+O00311). Description: Inhibition of recombinant human GST tagged CDC7/Dbf4 expressed in baculovirus expression system at 10 uM by Z'-LYTE assay.
Assay [5] addresses T1, Serine/threonine-protein kinase Chk1 (Homo sapiens) (UniProt O14757).
T1 sequence (whole entry): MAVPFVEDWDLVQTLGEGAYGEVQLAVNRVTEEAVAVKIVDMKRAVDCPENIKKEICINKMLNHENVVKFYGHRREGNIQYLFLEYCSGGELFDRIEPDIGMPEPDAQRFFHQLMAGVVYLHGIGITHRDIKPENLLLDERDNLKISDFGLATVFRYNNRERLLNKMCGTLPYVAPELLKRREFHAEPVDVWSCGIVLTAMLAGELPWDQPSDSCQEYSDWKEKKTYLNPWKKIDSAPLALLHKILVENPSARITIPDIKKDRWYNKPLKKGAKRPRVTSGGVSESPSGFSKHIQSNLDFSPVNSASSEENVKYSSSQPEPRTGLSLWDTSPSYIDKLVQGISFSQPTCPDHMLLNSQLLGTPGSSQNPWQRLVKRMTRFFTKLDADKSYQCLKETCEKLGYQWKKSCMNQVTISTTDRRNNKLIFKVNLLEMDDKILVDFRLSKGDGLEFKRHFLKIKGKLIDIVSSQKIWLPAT
Description: Inhibition of human CHK1 using serine/threonine-07 peptide as substrate at 10 uM incubated for 60 mins in presence of ATP by Z'-LYTE assay.

For another assay, the species on record is Homo sapiens. Description: Inhibition of recombinant full length human His-tagged CDK1/CyclinB expressed in baculovirus expression system using serine/threonine-18 peptide as substrate at 10 uM incubated for 60 mins in presence of ATP by Z'-LYTE assay.
In assay [6] the target is Glycogen synthase kinase-3 beta (Homo sapiens) (UniProt P49841). Briefly: Inhibition of recombinant human full length His-tagged GSK3B expressed in baculovirus expression system using serine/threonine-09 peptide as substrate at 10 uM incubated for 60 mins in presence of ATP by Z'-LYTE assay.
In assay [7] the target is Casein kinase II subunit alpha (Homo sapiens) (UniProt P68400). Briefly: Inhibition of recombinant human full length His-tagged CSNK2A1 expressed in baculovirus expression system using serine/threonine-11 peptide as substrate at 10 uM incubated for 60 mins in presence of ATP by Z'-LYTE assay.
In assay [8] the target is Dual specificity tyrosine-phosphorylation-regulated kinase 1A (Homo sapiens) (UniProt Q13627). Briefly: Inhibition of recombinant human full length GST-tagged DYRK1A expressed in baculovirus expression system using serine/threonine-18 peptide as substrate at 10 uM incubated for 60 mins in presence of ATP by Z'-LYTE assay.
The target of assay [9] is Platelet-derived growth factor receptor alpha (Homo sapiens) (UniProt P16234). Briefly: Inhibition of recombinant human GST-tagged PDGFRA expressed in baculovirus expression system using Tyr-04 peptide as substrate at 10 uM by Z'-LYTE assay. The note with it: time 60.0 min.
The target in assay [10] is Glycogen synthase kinase-3 alpha (Homo sapiens) (UniProt P49840). Description: Inhibition of recombinant human full length GST-tagged GSK3A expressed in baculovirus expression system using serine/threonine-09 peptide as substrate at 10 uM incubated for 60 mins in presence of ATP by Z'-LYTE assay.
In assay [11] the target is Dual specificity tyrosine-phosphorylation-regulated kinase 1B (Homo sapiens) (UniProt Q9Y463). Description: Inhibition of recombinant human full length GST-tagged DYRK1B expressed in baculovirus expression system using serine/threonine-18 peptide as substrate at 10 uM incubated for 60 mins in presence of ATP by Z'-LYTE assay.
Assay [12] addresses Rho-associated protein kinase 1 (Homo sapiens) (UniProt Q13464). Description: Inhibition of recombinant human GST-tagged ROCK1 expressed in baculovirus expression system using serine/threonine-07 peptide as substrate at 10 uM by Z'-LYTE assay. The conditions noted are these: time 60.0 min.
For assay [13], the target named is Tyrosine-protein kinase JAK2 (Homo sapiens) (UniProt O60674). Description: Inhibition of recombinant human GST-tagged JAK2 expressed in baculovirus expression system using Tyr-06 peptide as substrate at 10 uM incubated for 60 mins in presence of ATP by Z'-LYTE assay.
The target in assay [14] is Casein kinase I isoform alpha (Homo sapiens) (UniProt P48729). Description: Inhibition of human CSNK1A1 expressed in baculovirus expression system using serine/threonine-11 peptide as substrate at 10 uM incubated for 60 mins in presence of ATP by Z'-LYTE assay.
Assay [15] deals with Tyrosine-protein kinase Fyn (Homo sapiens) (UniProt P06241). Briefly: Inhibition of recombinant human His-tagged Fyn expressed in baculovirus expression system using Tyr 02 peptide as substrate at 10 uM incubated for 60 mins in presence of ATP by Z'-LYTE assay.
The target in assay [16] is Calcium/calmodulin-dependent protein kinase type 1D (Homo sapiens) (UniProt Q8IU85). Description: Inhibition of recombinant full length human His-tagged CAMK1delta expressed in baculovirus expression system using serine/threonine-25 peptide as substrate at 10 uM incubated for 60 mins in presence of ATP by Z'-LYTE assay.
The next assay deals with SH-SY5Y. Description: Neuroprotective activity in human SH-SY5Y cells assessed by effect on TDP-43 levels preincubated for 1 hr followed by incubation with ethacrynic acid for 24 hrs measured at 10 uM by Western blot assay. Type of assay: functional, cell-based.
Assay [17] has as its target RAC-alpha serine/threonine-protein kinase (Homo sapiens) (UniProt P31749). Description: Inhibition of recombinant full length human His-tagged AKT1 using serine/threonine-06 peptide as substrate at 10 uM incubated for 60 mins in presence of ATP by Z'-LYTE assay.

Calls of active or inactive are those of the source. No cut-off for these calls is given here.

Chain of Mitogen-activated protein kinase 3 (Homo sapiens) (P27361 whole entry): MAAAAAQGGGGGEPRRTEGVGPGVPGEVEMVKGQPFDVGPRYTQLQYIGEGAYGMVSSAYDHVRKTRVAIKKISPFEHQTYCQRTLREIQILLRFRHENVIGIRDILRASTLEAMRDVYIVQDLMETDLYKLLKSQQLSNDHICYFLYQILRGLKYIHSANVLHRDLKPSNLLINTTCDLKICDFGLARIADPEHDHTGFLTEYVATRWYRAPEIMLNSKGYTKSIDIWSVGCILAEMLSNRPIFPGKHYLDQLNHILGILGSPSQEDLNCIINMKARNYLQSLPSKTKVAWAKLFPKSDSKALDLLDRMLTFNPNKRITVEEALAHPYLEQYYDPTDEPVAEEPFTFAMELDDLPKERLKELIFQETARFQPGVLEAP
Chain of RAC-beta serine/threonine-protein kinase (Homo sapiens) (P31751 whole entry): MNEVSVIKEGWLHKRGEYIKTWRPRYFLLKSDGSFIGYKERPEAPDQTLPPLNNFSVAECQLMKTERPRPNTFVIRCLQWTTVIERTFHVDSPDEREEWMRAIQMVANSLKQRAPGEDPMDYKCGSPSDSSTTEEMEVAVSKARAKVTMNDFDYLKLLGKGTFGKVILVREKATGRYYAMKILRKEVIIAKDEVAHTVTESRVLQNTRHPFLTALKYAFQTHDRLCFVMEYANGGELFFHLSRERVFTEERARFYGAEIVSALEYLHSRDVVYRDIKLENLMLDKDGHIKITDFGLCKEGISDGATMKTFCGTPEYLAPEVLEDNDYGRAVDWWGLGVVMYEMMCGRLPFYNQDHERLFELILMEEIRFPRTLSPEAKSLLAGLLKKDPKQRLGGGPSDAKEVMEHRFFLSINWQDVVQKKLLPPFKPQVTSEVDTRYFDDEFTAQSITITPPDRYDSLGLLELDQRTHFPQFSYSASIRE
Chain of Platelet-derived growth factor receptor alpha (Homo sapiens) (P16234 whole entry): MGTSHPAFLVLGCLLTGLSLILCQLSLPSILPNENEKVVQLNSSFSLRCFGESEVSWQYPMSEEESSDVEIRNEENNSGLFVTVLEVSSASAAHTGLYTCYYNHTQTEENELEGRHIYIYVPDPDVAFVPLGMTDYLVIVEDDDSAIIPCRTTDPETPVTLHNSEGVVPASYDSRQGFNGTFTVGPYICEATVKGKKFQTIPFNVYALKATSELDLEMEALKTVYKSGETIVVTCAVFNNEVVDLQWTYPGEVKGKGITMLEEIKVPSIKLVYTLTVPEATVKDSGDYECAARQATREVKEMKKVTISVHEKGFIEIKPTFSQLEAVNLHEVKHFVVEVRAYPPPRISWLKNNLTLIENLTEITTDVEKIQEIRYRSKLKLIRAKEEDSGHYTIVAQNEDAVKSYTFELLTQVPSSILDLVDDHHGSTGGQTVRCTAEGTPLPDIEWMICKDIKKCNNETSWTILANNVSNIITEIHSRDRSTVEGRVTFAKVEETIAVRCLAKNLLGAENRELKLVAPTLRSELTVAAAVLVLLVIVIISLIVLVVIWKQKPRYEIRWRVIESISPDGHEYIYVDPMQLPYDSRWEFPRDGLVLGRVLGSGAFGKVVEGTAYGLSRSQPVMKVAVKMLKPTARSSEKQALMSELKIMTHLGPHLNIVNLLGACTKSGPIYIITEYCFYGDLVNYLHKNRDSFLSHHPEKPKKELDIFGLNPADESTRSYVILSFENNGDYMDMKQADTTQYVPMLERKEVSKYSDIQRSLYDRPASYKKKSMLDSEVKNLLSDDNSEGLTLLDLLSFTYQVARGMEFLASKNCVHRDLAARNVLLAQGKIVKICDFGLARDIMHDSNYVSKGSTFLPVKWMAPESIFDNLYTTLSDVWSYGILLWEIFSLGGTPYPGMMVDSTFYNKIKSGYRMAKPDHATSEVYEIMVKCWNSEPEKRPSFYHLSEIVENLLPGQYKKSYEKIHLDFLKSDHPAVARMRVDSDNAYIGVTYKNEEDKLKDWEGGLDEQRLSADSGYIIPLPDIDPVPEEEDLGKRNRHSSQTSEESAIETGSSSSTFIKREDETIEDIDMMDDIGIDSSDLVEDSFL
Chain of Glycogen synthase kinase-3 alpha (Homo sapiens) (P49840 2-483 limits assumed): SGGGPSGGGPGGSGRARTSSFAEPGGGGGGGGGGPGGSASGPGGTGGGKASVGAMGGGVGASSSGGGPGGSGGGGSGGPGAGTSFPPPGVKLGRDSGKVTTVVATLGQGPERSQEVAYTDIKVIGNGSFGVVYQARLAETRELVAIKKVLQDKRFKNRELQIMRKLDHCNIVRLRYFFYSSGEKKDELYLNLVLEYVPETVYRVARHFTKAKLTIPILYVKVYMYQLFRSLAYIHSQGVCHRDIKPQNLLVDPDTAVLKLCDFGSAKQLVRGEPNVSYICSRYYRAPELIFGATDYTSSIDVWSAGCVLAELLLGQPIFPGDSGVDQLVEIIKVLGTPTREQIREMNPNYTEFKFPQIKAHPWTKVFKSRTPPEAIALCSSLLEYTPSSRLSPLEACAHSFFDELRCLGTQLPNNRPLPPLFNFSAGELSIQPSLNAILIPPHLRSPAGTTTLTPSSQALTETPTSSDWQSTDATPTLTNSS
Chain of RAC-alpha serine/threonine-protein kinase (Homo sapiens) (P31749 whole entry): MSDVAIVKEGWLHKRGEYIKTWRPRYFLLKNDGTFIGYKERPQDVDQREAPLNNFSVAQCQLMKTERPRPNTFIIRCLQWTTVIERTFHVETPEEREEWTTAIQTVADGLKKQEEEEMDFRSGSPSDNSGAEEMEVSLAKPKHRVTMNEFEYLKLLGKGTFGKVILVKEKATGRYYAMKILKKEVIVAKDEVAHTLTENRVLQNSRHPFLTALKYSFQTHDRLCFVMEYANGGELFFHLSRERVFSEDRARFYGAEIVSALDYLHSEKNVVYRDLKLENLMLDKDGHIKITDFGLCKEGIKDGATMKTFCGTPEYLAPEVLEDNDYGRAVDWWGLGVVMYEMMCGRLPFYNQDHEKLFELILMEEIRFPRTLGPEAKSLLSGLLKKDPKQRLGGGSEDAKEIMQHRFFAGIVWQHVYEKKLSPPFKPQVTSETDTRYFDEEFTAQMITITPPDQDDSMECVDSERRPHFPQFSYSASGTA
Chain of Tyrosine-protein kinase Fyn (Homo sapiens) (P06241 2-537 limits assumed): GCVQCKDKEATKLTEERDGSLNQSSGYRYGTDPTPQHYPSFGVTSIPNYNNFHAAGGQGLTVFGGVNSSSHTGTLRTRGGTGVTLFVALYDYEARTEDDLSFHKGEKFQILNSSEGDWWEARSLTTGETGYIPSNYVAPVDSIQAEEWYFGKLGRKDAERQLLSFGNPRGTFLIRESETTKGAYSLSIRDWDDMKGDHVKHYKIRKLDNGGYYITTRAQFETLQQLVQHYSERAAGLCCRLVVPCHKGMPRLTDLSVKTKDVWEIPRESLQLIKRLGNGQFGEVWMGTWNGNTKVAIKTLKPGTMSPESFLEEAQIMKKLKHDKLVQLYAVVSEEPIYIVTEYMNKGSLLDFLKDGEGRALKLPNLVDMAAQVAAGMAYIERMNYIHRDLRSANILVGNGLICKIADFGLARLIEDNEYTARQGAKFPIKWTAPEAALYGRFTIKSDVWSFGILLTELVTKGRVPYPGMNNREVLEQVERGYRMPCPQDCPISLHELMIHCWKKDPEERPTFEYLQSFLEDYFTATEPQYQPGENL
Chain of Tyrosine-protein kinase JAK2 (Homo sapiens) (O60674 whole entry, canonical isoform): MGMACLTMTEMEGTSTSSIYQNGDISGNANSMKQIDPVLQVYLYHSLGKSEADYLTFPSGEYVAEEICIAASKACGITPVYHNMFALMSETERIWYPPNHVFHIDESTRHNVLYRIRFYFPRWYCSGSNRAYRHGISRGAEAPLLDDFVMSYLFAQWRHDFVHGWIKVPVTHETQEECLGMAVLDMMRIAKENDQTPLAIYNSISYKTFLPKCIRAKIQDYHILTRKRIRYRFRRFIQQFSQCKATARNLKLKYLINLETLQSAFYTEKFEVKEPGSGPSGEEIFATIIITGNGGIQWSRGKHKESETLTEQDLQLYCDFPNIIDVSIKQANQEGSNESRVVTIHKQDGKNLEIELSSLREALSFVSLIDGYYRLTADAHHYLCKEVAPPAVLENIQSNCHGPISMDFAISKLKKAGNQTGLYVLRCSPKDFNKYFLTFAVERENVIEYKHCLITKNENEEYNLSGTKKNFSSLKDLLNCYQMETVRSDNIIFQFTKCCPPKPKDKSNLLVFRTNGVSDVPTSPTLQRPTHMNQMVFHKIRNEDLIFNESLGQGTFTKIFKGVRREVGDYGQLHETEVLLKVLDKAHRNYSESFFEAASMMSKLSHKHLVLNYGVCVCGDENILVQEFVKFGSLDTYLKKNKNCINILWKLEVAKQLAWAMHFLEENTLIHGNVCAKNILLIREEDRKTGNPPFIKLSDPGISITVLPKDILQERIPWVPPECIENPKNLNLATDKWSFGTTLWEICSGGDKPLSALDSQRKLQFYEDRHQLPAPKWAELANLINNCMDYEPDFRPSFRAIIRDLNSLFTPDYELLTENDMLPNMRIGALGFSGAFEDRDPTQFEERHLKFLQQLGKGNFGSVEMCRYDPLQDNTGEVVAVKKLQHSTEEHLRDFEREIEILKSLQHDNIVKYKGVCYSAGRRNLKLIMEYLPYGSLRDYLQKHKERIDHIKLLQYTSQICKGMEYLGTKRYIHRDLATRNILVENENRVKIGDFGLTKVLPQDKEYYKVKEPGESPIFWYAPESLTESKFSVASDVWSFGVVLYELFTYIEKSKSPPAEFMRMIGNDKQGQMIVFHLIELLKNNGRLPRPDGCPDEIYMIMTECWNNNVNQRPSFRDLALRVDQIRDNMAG
Chain of Glycogen synthase kinase-3 beta (Homo sapiens) (P49841 whole entry, looked up): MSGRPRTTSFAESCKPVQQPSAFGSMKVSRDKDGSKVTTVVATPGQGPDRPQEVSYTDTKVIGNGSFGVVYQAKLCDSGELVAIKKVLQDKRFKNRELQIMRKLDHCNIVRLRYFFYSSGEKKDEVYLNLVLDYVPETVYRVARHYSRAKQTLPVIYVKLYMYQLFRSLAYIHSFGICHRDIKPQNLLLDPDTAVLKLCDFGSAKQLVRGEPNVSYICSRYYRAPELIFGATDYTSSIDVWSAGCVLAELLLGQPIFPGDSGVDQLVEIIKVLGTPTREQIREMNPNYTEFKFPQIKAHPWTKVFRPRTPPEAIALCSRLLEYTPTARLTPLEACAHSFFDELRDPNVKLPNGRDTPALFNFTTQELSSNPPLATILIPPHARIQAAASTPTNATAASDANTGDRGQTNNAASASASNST

For `Brc1ccccc1CSc1ncnc2[nH]cnc12`, the inhibition entry (in assay [1]; in assay [2]; in assay [3]; in [5]; in the assay listed under Homo sapiens; in [6]) was “inactive” in each case. Also, the inhibition result in [7], in assay [8], in assay [9], in assay [10], in [11] and in assay [12] was “inactive” throughout. Moreover, the inhibition result in assay [13], in [14], in assay [15], in assay [16] and in assay [17] was “inactive” throughout. The inhibition result in assay [4] is “Active”. In addition, the result in the assay with SH-SY5Y was inactive.

Take `c1ccc(CSc2ncnc3[nH]cnc23)cc1`: the inhibition result (in assay [1]; in assay [2]; in assay [3]; in assay [5]; in the assay listed under Homo sapiens; in [6]) was “inactive” each time. In addition, the inhibition entry in assay [7], in assay [8], in [9], in assay [10], in assay [11] and in assay [12] was “inactive” each time. In addition, the inhibition entry in assay [13], in assay [14], in assay [15], in assay [16] and in assay [17] was “inactive” in each case. Besides, the inhibition result in assay [4] was “Active”. Also, the result in the assay on SH-SY5Y was inactive.

In the case of `Clc1cccc(CSc2ncnc3[nH]cnc23)c1`, the inhibition entry (in assay [1]; in [2]; in assay [3]; in assay [5]; in the assay filed under Homo sapiens; in assay [6]) was “inactive” each time. For the same molecule, the inhibition entry in [7], in assay [8], in assay [9], in assay [10], in [11] and in [12] was “inactive” throughout. Further, the inhibition entry in assay [13], in assay [14], in [15], in assay [16] and in assay [17] was “inactive” each time. In addition, the inhibition entry in assay [4] is “Active”. The outcome in the assay on SH-SY5Y was inactive.
